The source of these data is patent US12595250B2, “Substituted pyrimidine compounds as multifunctional radical quenchers and their uses” (ARIZONA BOARD OF REGENTS ON BEHALF OF ARIZONA STATE …, priority 2016, dated 2026).

Series [1] can be described thus: In vitro microsomal stability assay. It counts as in vitro ADME. The following applies: pH 7.4, bovine liver microsomes 1 mg/mL, 25 μM compound, 37° C., NADPH, read-out: Recovery (%) of compound after reaction with activated microsomes. Here is the method:
Liver tissues were diced into small pieces and then washed with isotonic sucrose buffer (0.25 M sucrose, 10 mM Tris-HCl, 0.5 mM EDTA, pH 7.8). The diced tissue was passed through a precooled meat grinder and mixed with three-fold ice cold sucrose buffer supplemented with a mixture of protease inhibitors. The suspension was homogenized in a Waring blender for 25 s at high speed. At this stage, the pH of the suspension was adjusted to 7.4 with 1 M Tris base. The homogenate was centrifuged for 20 min at 1200×g to remove cell debris. The supernatant suspension was homogenized in a tight fitting Teflon-glass Potter-Elvehjem homogenizer and then centrifuged twice at 10,000×g for 20 min, collecting the supernatant each time to remove mitochondria. The floating fat layer was carefully removed by filtering the supernatant through layers of cheesecloth. The supernatant was centrifuged at 150,000×g for 30 min (Beckman-Coulter ultracentrifuge, XL-100K-01, SW 55 Ti rotor). The pellet (microsomal fraction) was suspended in 0.25 M sucrose buffer containing 10 mM Tris-HCl, pH 7.4, with 20% (v/v) glycerol, and centrifuged once more at 150,000×g. The pellet was resuspended in sucrose buffer with 20% (v/v) glycerol. The protein concentration after resuspension was approximately 20 mg/mL, as determined by BCA protein assay (Pierce Chemical) using bovine serum albumin as a standard. Aliquots of microsomal suspensions were stored at −80° C.
In vitro metabolic stability was determined in bovine liver microsomes at a protein concentration of 1 mg/mL in 50 mM phosphate buffer mixture, pH 7.4, containing 5 mM MgCl2 in a final incubation volume of 0.5 mL. Each test compound was added to a final concentration of 25 μM. This mixture was pre-warmed to 37° C. prior to starting the reaction by the addition of β-NADPH to 1 mM final concentration. After incubation for 30 min at 37° C., the reaction was quenched by the addition of 1 mL of propanol, vortexed for 2 min and centrifuged at 15,000×g for 10 min to pellet the precipitated protein. The resulting supernatant was pipetted out and then concentrated under diminished pressure. A parallel incubation of the test compound with deactivated microsomes (quenched immediately with propanol) lacking β-NADPH served as a control and was run for each test agent to detect microsome-independent degradation. The sample was reconstituted in 130 μL MeOH and centrifuged again at 15,000×g for 3 min. The supernatant was removed and 4 μM fluorene was added as an internal standard before HPLC analysis. HPLC analyses were performed on a Zorbax SB-Phenyl reversed phase analytical (150×4.6 mm, 5 m) HPLC column using a mobile phase consisting of MeOH/H2O. A linear gradient of (50:50 MeOH/H2O→100:0 MeOH/H2O) was employed over a period of 14 min at a flow rate of 1 mL/min. Metabolic stability was expressed as percent of control remaining. The experiments were carried out in duplicate to verify the results.

Series [2] deals with FRDA lymphocytes. The series is described as follows: Lipid peroxidation assay (C11-BODIPY 581/591, FACS). It counts as cell-based, Human. The settings on record: high concentration, 5 mM DEM. As for the experimental part:
The bar graph represents the percentage of the median mean fluorescence intensity of C11-BODIPY-green fluorescence relative to a treated control is shown. Data are expressed as the mean±SEM (n=3).
Human mitochondrial disease cell lines, Friedreich's ataxia lymphocytes (GM15850), and Leigh's syndrome lymphocytes (GM13740) were obtained from Coriell Cell Repositories (Camden, NJ). Lymphocytes were cultured in RPMI-1640 medium (Gibco, Life Technologies, Grand Island, NY) with 15% fetal calf serum, 2 mM glutamine (HyClone, South Logan, UT) and 1% penicillin-streptomycin antibiotic supplement (Cellgro, Manassas, VA). Cells were passaged every other day to maintain them in log phase growth and kept at a nominal concentration of 5-10×10^5 cell/mL. A CoQ10 deficient lymphocyte cell line (GM17932) was obtained from Coriell Cell Repositories. […]
Lipid peroxidation was measured by a quantitative FACS assay using the oxidation-sensitive fatty acid probe C11-BODIPY^581/591 (Molecular Probe) as described in art (Goldschmidt, R., et al. Bioorg. Med. Chem. 2013, 21, 969; Khdour, 0. M., et al. ACS Med. Chem. Lett. 2013, 4, 724; and Arce, P. M., et al. Bioorg. Med. Chem. 2012, 20, 5188). […] Cells were resuspended in phosphate buffered saline and were analyzed immediately by FACS (C6 Accuri, BD Biosciences, San Jose, CA), using a 488 nm excitation laser and the FL1-H channel 530±15 nm emission filter. The generation of lipid peroxide was detected as a result of the oxidation of the polyunsaturated butadienyl portion of the dye, resulting in a shift of the fluorescence emission peak from red to green. In each analysis, 10,000 events were recorded after cell debris were electronically gated out. […] Results were expressed as a percentage of the median mean fluorescence intensity of C11-BODIPY-green relative to the treated control (DEM).

Turning to `CCCCCCCCCCCCCCc1nc(OC2CCC2)nc(OC2CCC2)c1O` [Compound 3b, 2,4-Dicyclobutanoxy-6-tetradecylpyrimidin-5-ol], the recovery at 30 min, 25 μM in series [1] worked out at 72 ± 3%. For the same molecule, the “Suppression of lipid peroxidation (in words, FIG. 2)” value in series [2] was “slightly efficient”.
